Experimental data published in patent US7320973B2, “Dihydrodiaryloxazepine derivative and pharmaceutical composition containing the same” (Ajinomoto Co., Inc., priority 2001, dated 2008).
Where a name gives a salt, the structure may show the parent alone.

How the values were obtained:
[1] = tested on: 5-HTP-induced defecation (diarrhea or loose stool); test: In vivo 5-hydroxytryptophan (5-HTP)-induced defecation model of mice; design: species or system mouse; conditions: oral administration 30 minutes before 5-HTP 10 mg/kg s.c., fecal score over 30 minutes
Description: The tests were conducted by a method of G. J. Sanger et al. (British Journal of Pharmacology, 130: 706-712, 2000).
Male SLC:ICR mice (6 weeks old) were moved to 5stainless steel cages connected together for mice. After the naturalization for at least one hour, a test compound was orally administered (n=10). 30 minutes after, 10 mg/5 mL/kg of 5-HTP or vehicle (5mL/kg of physiological saline for a group for which 5-HTP was not used) was injected subcutaneously. The state of the fecal pellets of each mouse excreted in 30 minutes immediately after the injection was observed [scored as 0 (normal fecal pellets or no fecal pellets) or 1(diarrhea or loose stool)]. The score obtained by subtracting the score of the group to which 5-HTP had not been given from the score of the group to which 5-HTP had been given was taken as 100%. The amount of a test compound for 50% control (ID50) was calculated.

[2] = tested on: abdominal pain threshold on colorectal distension; test: Elevation of threshold value of abdominal pain in in vivo rat colorectal distension model; conditions: rats, oral administration
Description: The tests were conducted by a method of Saito et al. (Anesth. Analg. 1998; 87: 382-387).
Male Crj:CD rats (250-350 g) were used. A test compound was orally administered to them (n=8). A balloon (length: 7 cm) for dilating the colon was connected to a transducer . After fasting each rat for one day, the balloon was noninvasively inserted internally into the colorectal portion and the base of the balloon was positioned 1 cm from anus under light anesthesia with ether. Water was injected into the balloon at a rate of 0.9 ml/min until the inner pressure in the balloon reached 100 mmHg (cut off value). When the contraction of the abdominal muscle was macroscopically observed during the colon distension, the pressure in the balloon was taken as the threshold value of abdominal pain. The colon distension was conducted at intervals of at least 5 minutes.
The analgesic effect was determined according to the following formula: Analgesic effect (%)=[(threshold value of abdominal pain after treatment with test compound)−(threshold value of abdominal pain before treatment with test compound)]/[100−(threshold value of abdominal pain before treatment with test compound)]×100.
The analgesic effect was calculated as the dose of the test compound required for 50% control (ID50).

CN(C)c1ccc(CCN2CCC[C@@H]2CN2c3cc(Cl)ccc3COc3ccccc32)cc1 [Example 8, (R)-3-Chloro-5,11-dihydro-5-[1-(4-dimethylaminophenethyl)pyrrolidin-2-ylmethyl]dibenzo[b,e][1,4]oxazepine dihydrochloride]
ID50 (5-HTP-induced defecation) [1]: 8.3 mg/kg
ID50 (analgesic effect, threshold value of abdominal pain) [2]: 2.6 mg/kg

Fc1ccc2c(c1)OCc1ccccc1N2C[C@H]1CCCN1CCc1ccc(N2CCCC2)cc1 [Example 12, (R)-8-Fluoro-5,11-dihydro-5-[1-(4-pyrrolidinophenethyl)pyrrolidin-2-yl-methyl]dibenzo[b,e]1,4]oxazepine dihydrochloride]
ID50 (analgesic effect, threshold value of abdominal pain) [2]: 1.9 mg/kg
